Patent US20030215462A1, “Use of UGT inhibitors to increase bioavailability” (priority 2001, published 2003)

How the values were obtained:
[1] = tested on: UGT enzymes of human liver microsomes; test: Inhibition of raloxifene glucuronidation (G1, G2) in human liver microsomes; assay type: biochemical; conditions: for % of control metabolism (SD, n = 3), raloxifene glucuronide G1 / % of control metabolism (SD, n = 3), raloxifene glucuronide G2: human liver microsomes 250 μg/ml, 15 min
From the text: Compounds were eluted using a binary solvent gradient system. […] Solvent B was methanol. […] Detection was at 280 nm.

[2] = tested on: UGT enzymes of pooled human jejunum microsomes; test: Inhibition of 2ME2 glucuronidation (MG1) in pooled human jejunum microsomes; assay type: biochemical; conditions: jejunum HJ61, 2ME2 50 μM
From the text: Compounds were eluted using a binary solvent gradient system where solvent A was dilute phosphoric acid (pH 3) and solvent B was 80:20 acetonitrile-methanol. […] Detection was at 280 nm.

[3] = inhibitor 10 μM, raloxifene 50 μM
[4] = inhibitor 25 μM, raloxifene 50 μM
[5] = inhibitor 50 μM, raloxifene 50 μM
[6] = inhibitor 100 μM, raloxifene 50 μM
[7] = inhibitor 500 μM, raloxifene 50 μM
[8] = liver lot 032101, inhibitor 50 μM
[9] = liver lot 062101, inhibitor 50 μM
[10] = liver lot 083000, inhibitor 50 μM
[11] = raloxifene 50 μM, inhibitor 10 μM
[12] = raloxifene 50 μM, inhibitor 25 μM
[13] = raloxifene 50 μM, inhibitor 50 μM
[14] = raloxifene 50 μM, inhibitor 100 μM

## O=C(O[C@@H]1Cc2c(O)cc(O)cc2O[C@@H]1c1ccc(O)c(O)c1)c1cc(O)c(O)c(O)c1 [Epicatechin gallate]
[1]; [3]
  % of control metabolism (SD, n = 3), raloxifene glucuronide G1: 77 (4) %
  % of control metabolism (SD, n = 3), raloxifene glucuronide G2: 73 (4) %
[1]; [4]
  % of control metabolism (SD, n = 3), raloxifene glucuronide G1: 48 (4) %
  % of control metabolism (SD, n = 3), raloxifene glucuronide G2: 55 (5) %
[1]; [5]
  % of control metabolism (SD, n = 3), raloxifene glucuronide G1: 37 (3) %
  % of control metabolism (SD, n = 3), raloxifene glucuronide G2: 43 (4) %
[1]; [6]
  % of control metabolism (SD, n = 3), raloxifene glucuronide G1: 20 (0) %
  % of control metabolism (SD, n = 3), raloxifene glucuronide G2: 24 (2) %
[1]; [7]
  % of control metabolism (SD, n = 3), raloxifene glucuronide G1: 0 (0) %
  % of control metabolism (SD, n = 3), raloxifene glucuronide G2: 0 (0) %
[1]; [8]
  % of control metabolism, raloxifene G1: 47 (4) %
  % of control metabolism, raloxifene G2: 45 (2) %
[1]; [9]
  % of control metabolism, raloxifene G1: 63 (4) %
  % of control metabolism, raloxifene G2: 37 (2) %
[1]; [10]
  % of control metabolism, raloxifene G1: 37 (3) %
  % of control metabolism, raloxifene G2: 43 (4) %
[1]; [11]
  % of control metabolism, raloxifene G1: 77 (4) %
  % of control metabolism, raloxifene G2: 73 (4) %
[1]; [12]
  % of control metabolism, raloxifene G1: 48 (4) %
  % of control metabolism, raloxifene G2: 55 (5) %
[1]; [13]
  % of control metabolism, raloxifene G1: 37 (3) %
  % of control metabolism, raloxifene G2: 43 (4) %
[1]; [14]
  % of control metabolism, raloxifene G1: 20 (0) %
  % of control metabolism, raloxifene G2: 24 (2) %
[2]; inhibitor 25 μM
  residual metabolism (% of control), 2ME2 MG1: 76 (4) %
[2]; inhibitor 50 μM
  residual metabolism (% of control), 2ME2 MG1: 63 (1) %
[2]; inhibitor 100 μM
  residual metabolism (% of control), 2ME2 MG1: 47 (2) %
